Assay: wn = mass fraction of the nth substance listed
Conditions: Gas, Burnett expansion method

F/C=C/C(F)(F)F [trans-1,3,3,3-tetrafluoropropene] + CC(C)C
Conditions	mass density [kg/m3]
280.17 K, 167.4 kPa, w1 = 0.7	6.7132
280.17 K, 218.3 kPa, w1 = 0.7	8.9087
280.18 K, 165.3 kPa, w1 = 0.65	6.4038
280.18 K, 215.5 kPa, w1 = 0.65	8.4982
280.18 K, 229.9 kPa, w1 = 0.8	10.1496
285.05 K, 159.8 kPa, w1 = 0.8	6.7596
285.06 K, 208.9 kPa, w1 = 0.8	8.9702
285.06 K, 266.4 kPa, w1 = 0.75	11.209
285.06 K, 272 kPa, w1 = 0.8	11.904
285.06 K, 290 kPa, w1 = 0.9	13.8805
285.08 K, 149.5 kPa, w1 = 0.65	5.6292
285.08 K, 195.5 kPa, w1 = 0.65	7.4702
285.08 K, 254.6 kPa, w1 = 0.65	9.9134
285.09 K, 151.9 kPa, w1 = 0.7	5.9363
285.09 K, 198.7 kPa, w1 = 0.7	7.8779
285.09 K, 258.7 kPa, w1 = 0.7	10.4543
290.16 K, 140.3 kPa, w1 = 0.75	5.5569
290.16 K, 183.7 kPa, w1 = 0.75	7.3743
290.16 K, 234.4 kPa, w1 = 0.7	9.1876
290.16 K, 239.9 kPa, w1 = 0.75	9.7861
290.17 K, 153.8 kPa, w1 = 0.9	6.9178
290.17 K, 201.4 kPa, w1 = 0.9	9.1804
290.17 K, 262.6 kPa, w1 = 0.9	12.1828
290.17 K, 304.8 kPa, w1 = 0.7	12.1924
290.17 K, 311.8 kPa, w1 = 0.75	12.9866
290.17 K, 340.7 kPa, w1 = 0.9	16.1673
290.18 K, 176 kPa, w1 = 0.65	6.5292
290.18 K, 179.5 kPa, w1 = 0.7	6.9229
290.18 K, 229.9 kPa, w1 = 0.65	8.6646
290.18 K, 299.2 kPa, w1 = 0.65	11.4985
290.19 K, 148.1 kPa, w1 = 0.85	6.3743
290.19 K, 193.9 kPa, w1 = 0.85	8.459
290.19 K, 252.9 kPa, w1 = 0.85	11.2256
290.19 K, 328.4 kPa, w1 = 0.85	14.8972
290.2 K, 188.8 kPa, w1 = 0.8	7.8842
290.2 K, 246.5 kPa, w1 = 0.8	10.4628
290.2 K, 320.1 kPa, w1 = 0.8	13.8847
295.18 K, 138.3 kPa, w1 = 0.9	6.0742
295.18 K, 181.5 kPa, w1 = 0.9	8.0608
295.18 K, 198.3 kPa, w1 = 0.65	7.2638
295.18 K, 258.7 kPa, w1 = 0.65	9.6394
295.18 K, 308.8 kPa, w1 = 0.9	14.1958
295.18 K, 336.3 kPa, w1 = 0.65	12.7921
295.18 K, 399.6 kPa, w1 = 0.9	18.8389
295.19 K, 151.4 kPa, w1 = 0.65	5.4735
295.19 K, 237.2 kPa, w1 = 0.9	10.6968
295.2 K, 160.8 kPa, w1 = 0.7	6.0421
295.2 K, 173.7 kPa, w1 = 0.85	7.366
295.2 K, 210.4 kPa, w1 = 0.7	8.0182
295.2 K, 227.4 kPa, w1 = 0.85	9.7751
295.2 K, 274.6 kPa, w1 = 0.7	10.6407
295.2 K, 296.4 kPa, w1 = 0.85	12.9722
295.2 K, 356.2 kPa, w1 = 0.7	14.1209
295.2 K, 384.1 kPa, w1 = 0.85	17.2147
295.21 K, 165.5 kPa, w1 = 0.75	6.4713
295.21 K, 216.7 kPa, w1 = 0.75	8.5879
295.21 K, 282.6 kPa, w1 = 0.75	11.3966
295.21 K, 366.4 kPa, w1 = 0.75	15.1241
295.22 K, 169.2 kPa, w1 = 0.8	6.8878
295.22 K, 221.5 kPa, w1 = 0.8	9.1405
295.22 K, 288.6 kPa, w1 = 0.8	12.13
295.22 K, 374 kPa, w1 = 0.8	16.0973
300.14 K, 198.5 kPa, w1 = 0.8	7.9893
300.14 K, 259.5 kPa, w1 = 0.8	10.6023
300.14 K, 337.5 kPa, w1 = 0.8	14.0697
300.16 K, 151.4 kPa, w1 = 0.8	6.02
300.16 K, 156.6 kPa, w1 = 0.85	6.5188
300.16 K, 205.4 kPa, w1 = 0.85	8.6508
300.16 K, 268.4 kPa, w1 = 0.85	11.4801
300.16 K, 348.9 kPa, w1 = 0.85	15.2347
300.16 K, 448.5 kPa, w1 = 0.85	20.2174
300.17 K, 466.4 kPa, w1 = 0.9	21.9125
300.18 K, 162.8 kPa, w1 = 0.9	7.0652
300.18 K, 213.3 kPa, w1 = 0.9	9.3759
300.18 K, 278.5 kPa, w1 = 0.9	12.4424
300.18 K, 361.8 kPa, w1 = 0.9	16.5116
300.19 K, 141.1 kPa, w1 = 0.65	4.9939
300.19 K, 147.4 kPa, w1 = 0.75	5.6247

— the NIST ThermoML archive (doi:10.1016/j.jct.2017.03.032)
